Laboratory results as given in patent US20130096100A1, “DI(ARYLAMINO)ARYL COMPOUND” (ASTELLAS PHARMA INC., priority 2007, published 2013).

Experiments:
MNK1 = molecular target: T1, MNK1 (Homo sapiens, UniProt Q9BUB5); test: Kinase inhibition profiling, MNK1 (Test Example 6); type: biochemical; conditions: 100 nM; read-out: inhibitory activity against MNK1
T1 construct: purchased Carna Biosciences Inc., Japan (contract measurement)

88 types of kinases = test: Kinase inhibition profiling, 88 types of kinases (Test Example 6); type: biochemical; conditions: concentration of 100 nM
[1] = test system: human non-small cell lung cancer cell line NCI-H2228 cells (EML4-ALK fusion protein-expressing cells); test: Inhibitory effect against anchorage-independent cell growth of NCI-H2228 cells (Test Example 3); type: cell-based; conditions: 120 h, spheroid plate, 5 days, CellTiter-Glo
Description: Measurement for anchorage-independent cell growth (colony method, etc) has been known to be a system for investigating the anticancer action (pharmacological effect) of test compounds (Clinical Oncology, second edition, Cancer and Chemotherapy Publishers Inc.). In place of the colony method, there is a following method using spheroid plates for measuring the growth of non-attached cells.
(§1) In a 96-well spheroid plate (Sumilon Celltight Spheroid 96U; Sumitomo Bakelite Co., Ltd., Japan), human non-small cell lung cancer cell line NCI-H2228 cells were seeded at 2000 cells per well in RPMI1640 medium (Invitrogen) containing 10% fetal bovine serum. NCI-H2228 cells are those expressing another EML4-ALK fusion protein, which is different from the EML4-ALK fusion protein v1 because it is encoded by an EML4-ALK fusion polynucleotide whose fusion point on EML4 cDNA is different from that of the EML4-ALK fusion polynucleotide v1, but whose ALK region is the same as that of the EML4-ALK fusion polynucleotide v1. The above NCI-H2228 cells seeded in the plate were cultured overnight under 5% CO2 at 37° C., followed by addition of a test compound (final concentration: 10 μM to 1 nM). As a negative control, DMSO used as a solvent was added at the same concentration as the test compound. Then, the cells were cultured under 5% CO2 at 37° C. for 5 days. A cell counting reagent (CellTiter-Glo™ Luminescent Cell Viability Assay; Promega) was added and agitated for 20 minutes, followed by measurement with a luminometer (ML3000 microtiter plate luminometer; Dynatech Laboratories).

[2] = Toxicity test in rats, 7-day repeated oral administration (Test Example 5); type: in vivo, SD rats; conditions: 7 days; for Dose: Bone marrow inhibition / Dose: Exacerbation of common symptoms / Non-toxic dose: oral; for Dose: Moribund condition: SD, rat, in vivo, po
Description: Test compounds were each suspended in a 0.5% aqueous methylcellulose solution and repeatedly administered to SD rats (two females and four males in each group) by the oral route at each dose for 7 days.

[3] = test system: human non-small cell lung cancer cell line HCC827 cells (mutant EGFR protein-expressing cells); test: Inhibitory effect against anchorage-independent cell growth of HCC827 cells (Test Example 4); type: cell-based; conditions: 120 h, spheroid plate, 5 days, CellTiter-Glo
Description: as §1
Evaluation of Inhibitory Effect Against Anchorage-Independent Cell Growth of Human Non-Small Cell Lung Cancer Cell Line HCC827 Cells (Mutant EGFR (with Partial Deletion of Exon 19 in EGFR) Protein-Expressing Cells, American Type Culture Collection)
Evaluation was performed in the same manner as shown in Test Example 3.

MUSK = molecular target: T2, MUSK (Homo sapiens, UniProt O15146); test: Kinase inhibition profiling, MUSK (Test Example 6); type: biochemical; design: purchased Carna Biosciences Inc., Japan (contract measurement); conditions: 100 nM; read-out: inhibitory activity against MUSK
T2 sequence (O15146 24-869): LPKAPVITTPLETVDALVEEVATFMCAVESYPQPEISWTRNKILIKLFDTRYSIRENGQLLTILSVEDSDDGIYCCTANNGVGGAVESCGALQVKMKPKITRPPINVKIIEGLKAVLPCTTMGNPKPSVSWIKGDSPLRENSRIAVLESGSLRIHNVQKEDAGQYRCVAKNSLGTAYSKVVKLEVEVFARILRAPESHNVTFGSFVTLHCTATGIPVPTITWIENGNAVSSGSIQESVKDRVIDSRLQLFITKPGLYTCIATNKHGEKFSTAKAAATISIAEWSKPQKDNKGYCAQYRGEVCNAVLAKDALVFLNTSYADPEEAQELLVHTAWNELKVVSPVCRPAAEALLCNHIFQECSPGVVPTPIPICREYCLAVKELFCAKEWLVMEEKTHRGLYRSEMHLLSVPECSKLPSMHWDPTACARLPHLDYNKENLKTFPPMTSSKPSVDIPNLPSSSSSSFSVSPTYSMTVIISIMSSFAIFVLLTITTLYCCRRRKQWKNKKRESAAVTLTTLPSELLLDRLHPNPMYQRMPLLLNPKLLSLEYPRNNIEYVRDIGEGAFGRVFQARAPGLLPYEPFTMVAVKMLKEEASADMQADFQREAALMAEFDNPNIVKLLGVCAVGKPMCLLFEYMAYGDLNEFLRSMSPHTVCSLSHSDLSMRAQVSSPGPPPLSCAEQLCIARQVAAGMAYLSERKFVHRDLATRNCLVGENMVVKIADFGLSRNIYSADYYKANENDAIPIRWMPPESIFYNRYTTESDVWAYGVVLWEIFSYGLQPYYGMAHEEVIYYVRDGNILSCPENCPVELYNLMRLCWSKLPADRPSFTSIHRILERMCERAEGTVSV

MER = molecular target: T3, MER (Homo sapiens, UniProt Q12866); test: Kinase inhibition profiling, MER (Test Example 6); type: biochemical; conditions: 100 nM; read-out: inhibitory activity against MER
T3 construct: purchased Carna Biosciences Inc., Japan (contract measurement)
T3 sequence (Q12866 21-999): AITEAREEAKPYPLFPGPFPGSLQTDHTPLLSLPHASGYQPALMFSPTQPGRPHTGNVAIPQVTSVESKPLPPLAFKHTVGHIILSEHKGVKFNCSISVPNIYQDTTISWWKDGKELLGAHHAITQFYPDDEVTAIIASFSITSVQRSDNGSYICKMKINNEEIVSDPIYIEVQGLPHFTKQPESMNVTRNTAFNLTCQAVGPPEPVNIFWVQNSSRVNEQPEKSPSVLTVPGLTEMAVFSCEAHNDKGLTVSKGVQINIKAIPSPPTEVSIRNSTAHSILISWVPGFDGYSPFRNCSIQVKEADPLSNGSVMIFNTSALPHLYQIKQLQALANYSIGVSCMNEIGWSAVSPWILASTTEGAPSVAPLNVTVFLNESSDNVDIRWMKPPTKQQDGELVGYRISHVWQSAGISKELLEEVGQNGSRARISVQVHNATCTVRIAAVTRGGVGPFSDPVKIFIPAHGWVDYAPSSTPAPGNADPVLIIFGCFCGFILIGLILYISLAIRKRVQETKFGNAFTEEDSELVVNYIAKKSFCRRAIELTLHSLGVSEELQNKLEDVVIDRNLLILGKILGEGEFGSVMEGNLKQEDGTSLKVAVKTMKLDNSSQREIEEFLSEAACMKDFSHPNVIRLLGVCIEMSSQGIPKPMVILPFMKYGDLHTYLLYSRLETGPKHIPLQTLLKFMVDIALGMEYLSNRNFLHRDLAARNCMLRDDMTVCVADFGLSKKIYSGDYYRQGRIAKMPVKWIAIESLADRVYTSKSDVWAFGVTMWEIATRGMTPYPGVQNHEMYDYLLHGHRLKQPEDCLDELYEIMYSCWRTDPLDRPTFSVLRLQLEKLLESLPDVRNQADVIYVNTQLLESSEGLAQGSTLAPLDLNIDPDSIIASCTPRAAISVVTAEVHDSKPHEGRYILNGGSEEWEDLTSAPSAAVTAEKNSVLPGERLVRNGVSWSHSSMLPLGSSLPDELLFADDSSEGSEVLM

[4] = test system: HCC-827 cells (mutant EGFR protein-expressing cells); conditions: conditions of Non-patent Document 6; cited from earlier work
[5] = test system: v1 expressing 3T3 cells (tumor); test: Antitumor effect on v1 expressing 3T3 cells inoculated in nude mice (Test Example 13); type: in vivo; conditions: once a day for 10 days, started 6 days after inoculation, BALB/c nude mice
Description: 3×10^6 cells of v1 expressing 3T3 cells suspended in PBS were inoculated subcutaneously by injection to the back of 5 weeks old male BALB/c nude mice (Charles River Japan, Inc.). […] Administrations were performed once a day for 14 days, and body weight and tumor size were measured every other day. Tumor volume was calculated using the following formula.
[Tumor volume (mm^3)]=[Tumor major axis (mm)]×[tumor minor axis (mm)]^2×0.5
The antitumor effect of compound D was investigated by the similar procedure with the following exceptions. The administration of the compound was started after 6 days of the inoculation and carried out once a day for 10 days.

[6] = molecular target: T4, EML4-ALK fusion protein v1 (Homo sapiens, UniProt Q9UM73, D1529E/I1461V/K1491R); test: Inhibitory effect of compounds against the in vitro kinase activity of EML4-ALK fusion protein v1, single concentration (Test Example 12(3)); type: biochemical; conditions: final concentration 10 nM
T4 construct: FLAG (N); made in house
T4 sequence (Q9UM73 with tags, fused parts or gaps I1461V/K1491R/D1529E): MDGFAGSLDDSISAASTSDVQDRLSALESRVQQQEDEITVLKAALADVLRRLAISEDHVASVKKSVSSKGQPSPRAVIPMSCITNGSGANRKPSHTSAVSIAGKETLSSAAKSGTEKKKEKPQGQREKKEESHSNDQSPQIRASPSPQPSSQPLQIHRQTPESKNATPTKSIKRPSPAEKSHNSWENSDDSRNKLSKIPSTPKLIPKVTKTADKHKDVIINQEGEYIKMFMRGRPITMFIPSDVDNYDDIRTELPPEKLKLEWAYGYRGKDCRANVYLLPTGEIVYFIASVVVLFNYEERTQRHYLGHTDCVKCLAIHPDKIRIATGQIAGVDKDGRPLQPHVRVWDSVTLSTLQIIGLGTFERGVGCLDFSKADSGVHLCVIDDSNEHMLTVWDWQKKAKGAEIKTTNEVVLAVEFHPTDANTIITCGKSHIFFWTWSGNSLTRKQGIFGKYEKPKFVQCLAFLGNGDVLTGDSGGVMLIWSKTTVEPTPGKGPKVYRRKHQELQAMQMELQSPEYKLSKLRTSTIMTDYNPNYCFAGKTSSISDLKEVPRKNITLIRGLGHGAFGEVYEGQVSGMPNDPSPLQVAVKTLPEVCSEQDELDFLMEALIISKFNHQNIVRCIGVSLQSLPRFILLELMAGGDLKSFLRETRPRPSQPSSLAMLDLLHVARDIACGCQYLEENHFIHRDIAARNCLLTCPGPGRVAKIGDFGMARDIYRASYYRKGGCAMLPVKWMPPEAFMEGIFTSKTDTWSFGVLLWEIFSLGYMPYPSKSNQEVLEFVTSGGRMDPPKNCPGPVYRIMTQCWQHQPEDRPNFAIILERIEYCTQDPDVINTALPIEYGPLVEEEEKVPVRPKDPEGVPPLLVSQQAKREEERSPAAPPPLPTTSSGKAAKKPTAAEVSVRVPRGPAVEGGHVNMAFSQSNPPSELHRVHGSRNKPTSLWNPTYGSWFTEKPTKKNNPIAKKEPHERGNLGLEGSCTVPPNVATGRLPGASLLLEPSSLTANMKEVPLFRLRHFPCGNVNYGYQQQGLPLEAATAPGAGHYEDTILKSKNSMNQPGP
Description: (§2) N-terminally FLAG-tagged EML4-ALK fusion protein v1 was inserted into a vector pMX-iresCD8 capable of co-expression of insert cDNA and cell surface antigen CD8 (J. Biol. Chem., 2001, vol. 276, p. 39012-39020) to create a vector FLAG-EML4-ALKv1/pMX-iresCD8 expressing both FLAG-EML4-ALKv1 and CD8. FLAG-EML4-ALKv1/pMX-iresCD8 was used to create a recombinant retrovirus in the same manner as described above and infected into mouse lymphoid cell line BA/F3 cells. Using a magnetic bead reagent for cell separation and a purification column (anti-CD8 monoclonal antibody immobilized on magnetic beads and a MiniMACS purification column; both are products of Miltenyi Biotec Inc.), cell surface CD8-expressing cells were purified conveniently. […] After washing 3 times with PBS, the cells were lysed in a lysis solution (50 mM Tris.HCl (pH 7.4), 150 mM NaCl, 1% Triton X100, 5 mM EDTA, 5 mM EGTA, 1 mM NaVO4, 1 mM DTT and protease inhibitor cocktail complete). The EML4-ALK fusion protein v1 present in the supernatant obtained after centrifugation was purified using ANTI-FLAG M2 Affinity Gel (SIGMA-ALDRICH Inc.) according to the method described in the product information document.
(§3) The EML4-ALK fusion protein v1 purified as above was investigated for its phosphorylation activity toward a peptide substrate using a kinase activity detection kit (HTRF KinEASE-TK; Cisbio Inc.). Using TK substrate 1, which was included in the kit, as the substrate, and after adding no ATP or 100 μM ATP, the mixtures were reacted at room temperature for 1 hour, and the count of HTRF was detected as recommended by the Kits manufacturer.

[7] = molecular target: T4, EML4-ALK fusion protein v1; test: Inhibitory activity against the kinase activity of EML4-ALK fusion protein v1 (Test Example 1); type: biochemical; conditions: ATP 100 μM, reaction 1 hour, HTRF KinEASE-TK
Description: EML4-ALK fusion protein v1 (purified from BA/F3 cells expressing EML4-ALK fusion protein v1) was investigated for its phosphorylation activity toward a peptide substrate by using a kinase activity detection kit (HTRF KinEASE-TK; Cisbio Inc.). […] The ATP concentration used was 100 μM. Another reaction solution was prepared to contain the enzyme protein but no test compound (in which the solvent DMSO alone was added at 0.4% in place of the test compound), followed by reaction in the same manner with or without ATP addition. […] The concentration causing 50% inhibition (IC50) was calculated for each test compound by the logistic regression method.
as §2, §3

[8] = molecular target: T4, EML4-ALK fusion protein v1; test: Inhibitory effect of compounds against the in vitro kinase activity of EML4-ALK fusion protein v1, IC50 (Test Example 14); type: biochemical; conditions: 8 concentrations 1000 nM to 0.3 nM
Description: In the same manner as shown in Test Example 12(3), compounds were investigated for their inhibitory effect against the in vitro kinase activity of EML4-ALK fusion protein v1 using the kinase activity detection kit mentioned above. Test compounds were each added to a reaction solution containing the EML4-ALK fusion protein v1 to give 8 final concentrations from 1000 nM to 0.3 nM, followed by addition of ATP. Another reaction solution was prepared to contain the EML4-ALK fusion protein v1 but no test compound (in which the solvent DMSO alone was added at 0.4% in place of the test compound), followed by reaction with or without ATP addition. The rest of the operations were carried out as described in Test Example 12(2). […] The concentration causing 50% inhibition (IC50) was calculated for each test compound by the logistic regression method.

T1 sequence (Q9BUB5 whole entry): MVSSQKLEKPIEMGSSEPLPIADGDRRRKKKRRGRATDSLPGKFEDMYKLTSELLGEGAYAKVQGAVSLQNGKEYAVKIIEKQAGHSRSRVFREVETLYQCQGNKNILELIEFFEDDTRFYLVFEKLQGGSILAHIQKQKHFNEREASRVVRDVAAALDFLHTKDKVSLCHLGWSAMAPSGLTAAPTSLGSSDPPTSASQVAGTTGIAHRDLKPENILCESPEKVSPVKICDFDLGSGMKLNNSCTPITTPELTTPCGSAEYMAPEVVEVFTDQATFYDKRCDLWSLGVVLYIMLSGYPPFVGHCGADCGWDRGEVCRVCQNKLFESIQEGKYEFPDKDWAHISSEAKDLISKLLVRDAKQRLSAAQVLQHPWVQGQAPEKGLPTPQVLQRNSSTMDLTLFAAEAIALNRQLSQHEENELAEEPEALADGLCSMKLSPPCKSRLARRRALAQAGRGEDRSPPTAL

Compound | inhibition at 0.1 µM (MNK1) [%] | number of types of kinases (of 88) with 50% or more inhibitory activity (88 types of kinases) | IC50 [1] [nM] | Dose: Bone marrow inhibition ([2]; female SD rats (2 rats)) [mg/kg] | Dose: Exacerbation of common symptoms ([2]; female SD rats (2 rats)) [mg/kg] | Non-toxic dose ([2]; female SD rats (2 rats)) [mg/kg] | Dose: Moribund condition ([2]; female) [mg/kg] | Dose: Bone marrow inhibition ([2]; male SD rats (4 rats)) [mg/kg] | Dose: Exacerbation of common symptoms ([2]; male SD rats (4 rats)) [mg/kg] | Non-toxic dose ([2]; male SD rats (4 rats)) [mg/kg] | Dose: Moribund condition ([2]; male) | IC50 [3] [nM] | inhibition at 0.1 µM (MUSK) [%] | inhibition at 0.1 µM (MER) [%] | growth inhibitory activity, inhibition rate [4] [%] | inhibition of the growth of v1 expressing 3T3 cells (tumor) [5] [%] | inhibition at 0.01 µM [6] [%] | IC50 [7] [nM] | IC50 [8] [nM]
COc1cc(N2CCC(N3CCN(C)CC3)CC2)ccc1Nc1ncc(Cl)c(Nc2ccccc2S(=O)(=O)C(C)C)n1 [TAE684, 5-chloro-N^4-[2-(isopropylsulfonyl)phenyl]-N^2-{2-methoxy-4-[4-(4-methylpiperazin-1-yl)piperidin-1-yl]phenyl}pyrimidine-2,4-diamine, reference compound] | 4.8 | 29 types of kinases | 8.5 | 10 | 30 | 3 | 100 | 10 | 100 | 3 | (>100) mg/kg | 301 | ≥ 90 | ≥ 90 | 7.5 | – | – | – | –
CNS(=O)(=O)c1ccccc1Nc1nc(Nc2ccc(N3CCN(C)CC3)cc2OC)ncc1Br [Compound D, 2-[(5-bromo-2-{[2-methoxy-4-(4-methylpiperazin-1-yl)phenyl]amino}pyrimidin-4-yl)amino]-N-methylbenzenesulfonamide] | – | – | – | – | – | – | – | – | – | – | – | – | – | – | – | 101 | 99 | – | –
COc1cc(N2CCC(N3CCN(C)CC3)CC2)ccc1Nc1nc(Nc2ccccc2S(=O)(=O)C(C)C)c2ccccc2n1 [Example 1, N^4-[2-(isopropylsulfonyl)phenyl]-N^2-{2-methoxy-4-[4-(4-methylpiperazin-1-yl)piperidin-1-yl]phenyl}quinazoline-2,4-diamine] | – | – | 473 | – | – | – | – | – | – | – | – | 2510 | – | – | – | – | – | 42 | 42
